PMC7489219 (Molecular Brain, 2020)
Counter-ions that a name gives are not always drawn.

tested on: T1, primary mouse cortical neurons; test: cells; parameters: Protection from NMDA-induced (30 uM, 10 min) neuronal death; Hoechst nuclear morphology by automated microscopy; conditions: Cortical neurone, 20 h, read-out: % inhibition, inhibition of NMDA-induced cell death (protection score), 30 min pre-treatment
T1 construct: primary cortical neurons, DIV 10
Outline: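 On DIV 10, primary mouse cortical neurons were given compound at 10 μM for 30 min at 37 °C, then 30 μM NMDA for 10 min, washed, and kept 20 h with compound. Dead cells were scored by nuclear morphology, and % protection was derived from survival relative to vehicle + NMDA and untreated controls.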

SMILES	inhibition at 10 µM [%]
CCN[C@H]1C[C@H](C)S(=O)(=O)c2sc(S(N)(=O)=O)cc21 [Dorzolamide HCL]	0.0606
CN1CCN(C2=Nc3cc(Cl)ccc3Nc3ccccc32)CC1 [Clozapine (Clozaril)]	-5.01
O=C(NCCO[N+](=O)[O-])c1cccnc1 [Nicorandil (Ikorel)]	51
OCc1c[nH]c2ccccc12 [Indole-3-carbinol]	-2.03
CC(=O)OCC(=O)[C@@]12OC(C)(C)O[C@@H]1C[C@H]1[C@@H]3C[C@H](F)C4=CC(=O)C=C[C@]4(C)[C@@]3(F)[C@@H](O)C[C@@]12C [Fluocinonide (Vanos)]	-1.57
CC(C)[C@H]1CC[C@H](C(=O)N[C@H](Cc2ccccc2)C(=O)O)CC1 [Nateglinide (Starlix)]	42.4
O=C(O)C[C@H](O)C[C@H](O)/C=C/c1c(C2CC2)nc2ccccc2c1-c1ccc(F)cc1 [Pitavastatin calcium (Livalo)]	17.7
CC(C)[C@]12O[C@H]1[C@@H]1O[C@]13[C@]1(O[C@H]1C[C@H]1C4=C(CC[C@@]13C)C(=O)OC4)[C@@H]2O [Triptolide]	-1.79
O=c1[nH]cc(F)c(=O)[nH]1 [Adrucil (Fluorouracil)]	-16.3
COc1cc2c(cc1OC)[C@@H]1Cc3ccc(OC)c(OC)c3CN1CC2 [Rotundine]	-0.337
CCC(C)(C)c1ccc(CC(C)CN2C[C@@H](C)O[C@@H](C)C2)cc1 (stereo partly drawn) [Amorolfine Hydrochloride]	-45.8
C[C@H]1[C@H](C)CC[C@]2(C(=O)O)CC[C@]3(C)C(=CC[C@@H]4[C@@]5(C)C[C@@H](O)[C@H](O)[C@@](C)(CO)[C@@H]5CC[C@]43C)[C@H]12 [Asiatic acid]	-2.44
Cc1cc(NS(=O)(=O)c2ccc(N)cc2)no1 [Sulfamethoxazole]	-1.59
COc1cc(C(C)=O)ccc1O [Apocynin (Acetovanillone)]	-0.991
CCCCNc1ccc(C(=O)OCCN(C)C)cc1 [Tetracaine hydrochloride (Pontocaine)]	-0.577
COc1ccc([C@@H]2CC(=O)c3c(O)cc(O[C@@H]4O[C@H](CO[C@@H]5O[C@@H](C)[C@H](O)[C@@H](O)[C@H]5O)[C@@H](O)[C@H](O)[C@H]4O)cc3O2)cc1OC [Methyl-Hesperidin]	-2.33
Cc1cccc(Nc2ccncc2S(=O)(=O)NC(=O)NC(C)C)c1 [Torsemide (Demadex)]	22
CN(C)c1nc(N(C)C)nc(N(C)C)n1 [Altretamine (Hexalen)]	-3.75
CC=CC1=C(C(=O)O)N2C(=O)[C@@H](NC(=O)[C@H](N)c3ccc(O)cc3)[C@H]2SC1 (mixture of isomers) [Cefprozil hydrate (Cefzil)]	0.674
Cc1ccc(NC(=O)c2ccc(CN3CCN(C)CC3)cc2)cc1Nc1nc(-c2cccnc2)cs1 [Masitinib (AB1010)]	-5.13
COc1cc([C@H]2Oc3cc([C@H]4Oc5cc(O)cc(O)c5C(=O)[C@@H]4O)ccc3O[C@@H]2CO)ccc1O [Silibinin (Silybin)]	8.03
CCOC(=O)[C@H](CCc1ccccc1)N[C@H]1CCc2ccccc2N(CC(=O)O)C1=O [Benazepril hydrochloride]	-11.1
CN(C)CCOC(c1ccccc1)c1ccccc1 [Diphenhydramine HCl (Benadryl)]	1.97
c1ccc2c(CC3=NCCN3)cccc2c1 [Naphazoline hydrochloride (Naphcon)]	-0.842
CN[C@@H]1[C@H](O)[C@H](NC)[C@H]2O[C@@]3(O)C(=O)C[C@@H](C)O[C@H]3O[C@@H]2[C@H]1O [Spectinomycin hydrochloride]	-1.03
O=c1cccc2n1C[C@@H]1CNC[C@H]2C1 [Cytisine (Baphitoxine, Sophorine)]	-0.723
CCNC(=O)CCC/C=C\C[C@@H]1[C@@H](/C=C/[C@@H](O)CCc2ccccc2)[C@H](O)C[C@@H]1O [Bimatoprost]	9.97
